The inhibition is the change of the read-out against control, counted positive when it falls. In general, Cmax refers to the maximum level reached in the sampled fluid or tissue.

The text below walks through data of ChEMBL document CHEMBL4680201, “Design, synthesis, and pharmacological evaluation of 4- or 6-phenyl-pyrimidine derivatives as novel and selective Janus kinase 3 inhibitors” (Eur J Med Chem, 2020).

Series [1] in a line: Plasma clearance in ICR mouse at 10 mg/kg, iv administered as single dose by LC-MS/MS analysis. In kind it is ADME, organism-based. The note with it: in vivo.
The test system of series [2] is Mus musculus. The series is described as follows: Immunosuppressive activity in Balb/c mouse model of oxazolone-induced delayed type hypersensitivity assessed as appearance of well structured tissue architecture at 30 mg/kg, po measured after 7 days by H and E staining based histopathological analysis. In kind it is functional, organism-based. The note with it: time 7.0 day.

Series [3] in a line: Cytotoxicity against resting mouse T cells assessed as reduction in cell viability at 10 uM measured after 72 hrs by MTS assay. In kind it is cell-based. A general note: Formazan colour is commonly taken as a measure of viable cells.
For series [4], the system named is Mus musculus. The series is described as follows: Immunosuppressive activity in Balb/c mouse model of oxazolone-induced delayed type hypersensitivity assessed as reduction in ear swelling at 30 mg/kg, po measured after 7 days. In kind it is functional, organism-based. Conditions: time 7.0 day.
Series [5] has as its system Mus musculus. The series is described as follows: Immunosuppressive activity in po dosed Balb/c mouse model of oxazolone-induced delayed type hypersensitivity assessed as reduction in ear swelling measured after 7 days. In kind it is functional, organism-based. Conditions: time 7.0 day.
In series [6] the target is T1, Tyrosine-protein kinase JAK3 (Mus musculus) (UniProt Q62137).
T1 sequence (whole entry): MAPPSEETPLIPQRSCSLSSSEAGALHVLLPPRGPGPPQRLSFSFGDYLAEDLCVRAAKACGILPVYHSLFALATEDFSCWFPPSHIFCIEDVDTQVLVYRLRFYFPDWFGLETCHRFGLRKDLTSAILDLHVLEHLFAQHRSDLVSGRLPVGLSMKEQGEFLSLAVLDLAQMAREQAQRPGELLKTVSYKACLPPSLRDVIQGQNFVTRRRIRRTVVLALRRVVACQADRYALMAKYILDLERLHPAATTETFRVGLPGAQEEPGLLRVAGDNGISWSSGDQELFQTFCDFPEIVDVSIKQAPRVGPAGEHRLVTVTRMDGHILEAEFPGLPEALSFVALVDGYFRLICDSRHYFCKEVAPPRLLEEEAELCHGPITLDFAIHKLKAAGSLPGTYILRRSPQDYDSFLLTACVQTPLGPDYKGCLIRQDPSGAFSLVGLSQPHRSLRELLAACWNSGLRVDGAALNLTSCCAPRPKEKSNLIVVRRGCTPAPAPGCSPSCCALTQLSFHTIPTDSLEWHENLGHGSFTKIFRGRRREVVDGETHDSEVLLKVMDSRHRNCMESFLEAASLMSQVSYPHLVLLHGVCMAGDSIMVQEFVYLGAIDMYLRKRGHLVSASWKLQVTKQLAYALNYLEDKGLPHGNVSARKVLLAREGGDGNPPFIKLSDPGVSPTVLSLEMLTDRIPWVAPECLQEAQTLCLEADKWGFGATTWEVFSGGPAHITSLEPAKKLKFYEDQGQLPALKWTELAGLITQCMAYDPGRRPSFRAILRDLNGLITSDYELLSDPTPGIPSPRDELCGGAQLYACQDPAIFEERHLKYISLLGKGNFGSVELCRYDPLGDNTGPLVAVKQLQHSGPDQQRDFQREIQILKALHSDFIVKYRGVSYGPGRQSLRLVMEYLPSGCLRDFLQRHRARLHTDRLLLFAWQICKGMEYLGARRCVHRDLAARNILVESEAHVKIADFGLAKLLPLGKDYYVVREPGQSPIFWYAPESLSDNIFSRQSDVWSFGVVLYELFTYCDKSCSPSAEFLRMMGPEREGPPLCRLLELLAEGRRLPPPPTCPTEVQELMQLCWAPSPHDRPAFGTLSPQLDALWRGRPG
The series is described as follows: Inhibition of JAK3 in anti-CD3/-CD28 coated mouse T cells assessed as reduction in IL15-induced STAT5 phosphorylation preincubated for 1 hr followed by […] and measured after 30 mins by Western blot analysis. The note with it: T cell.

Series [7] is described as follows: Apparent volume of distribution in ICR mouse at 10 mg/kg, iv administered as single dose by LC-MS/MS analysis. The note with it: in vivo, read-out: Vz. In kind it is ADME, organism-based.
Series [8] can be described thus: Apparent volume of distribution in ICR mouse at 30 mg/kg, po administered as single dose via gavage by LC-MS/MS analysis. In kind it is ADME, organism-based. Conditions: in vivo.
In series [9] the target is BTK (Tyrosine-protein kinase BTK) (Homo sapiens, UniProt Q06187). The series is described as follows: Inhibition of recombinant human His-tagged full length BTK expressed in baculovirus expression system at 100 nM using Tyr01 peptide as substrate incubated for 1 hr by Z'lyte assay relative to control. Conditions: probe Tyr01 peptide.
The subject of series [10] is RAW264.7. The series is described as follows: Cytotoxicity against mouse RAW264.7 cells assessed as reduction in cell viability at 10 uM measured after 72 hrs by MTS assay. In kind it is cell-based. Conditions: raw264.7, 72 h.
Series [11] is described as follows: Cmax in ICR mouse at 10 mg/kg, iv administered as single dose by LC-MS/MS analysis. The note with it: in vivo. Further details: route intravenous, dose 10 mg/kg. In kind it is ADME, organism-based.
Series [12] addresses T2, BMX (Cytoplasmic tyrosine-protein kinase BMX) (Homo sapiens, UniProt P51813).
T2 sequence (P51813 whole entry): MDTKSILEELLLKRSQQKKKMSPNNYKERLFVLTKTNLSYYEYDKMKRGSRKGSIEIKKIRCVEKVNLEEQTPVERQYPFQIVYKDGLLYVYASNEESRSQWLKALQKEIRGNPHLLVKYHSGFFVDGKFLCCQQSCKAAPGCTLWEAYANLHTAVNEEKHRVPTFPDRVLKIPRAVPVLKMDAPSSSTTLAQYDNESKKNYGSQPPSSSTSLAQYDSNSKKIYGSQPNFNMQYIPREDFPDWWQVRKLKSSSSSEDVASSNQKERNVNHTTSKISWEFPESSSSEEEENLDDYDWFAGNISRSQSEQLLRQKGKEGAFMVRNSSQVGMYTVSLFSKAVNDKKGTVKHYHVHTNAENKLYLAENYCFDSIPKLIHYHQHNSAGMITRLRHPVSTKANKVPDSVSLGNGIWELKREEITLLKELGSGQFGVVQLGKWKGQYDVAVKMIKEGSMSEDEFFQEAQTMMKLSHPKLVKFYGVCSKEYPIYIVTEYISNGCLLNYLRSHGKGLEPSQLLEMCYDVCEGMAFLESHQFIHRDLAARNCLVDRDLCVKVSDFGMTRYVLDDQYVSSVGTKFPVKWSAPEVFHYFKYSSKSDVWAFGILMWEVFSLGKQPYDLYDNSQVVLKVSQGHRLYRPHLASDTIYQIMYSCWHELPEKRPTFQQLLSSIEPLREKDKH
The series is described as follows: Inhibition of recombinant human His-tagged full length BMX expressed in baculovirus expression system at 100 nM using Tyr 01 as substrate incubated for 60 mins by Z'-Lyte assay relative to control. Conditions: probe Tyr 01.

SMILES strings stand for the structures. Active and inactive are the calls of the source. The calls are words filed in the database; no cut-off is given here.

BTK (Tyrosine-protein kinase BTK), sequence (Q06187 whole entry): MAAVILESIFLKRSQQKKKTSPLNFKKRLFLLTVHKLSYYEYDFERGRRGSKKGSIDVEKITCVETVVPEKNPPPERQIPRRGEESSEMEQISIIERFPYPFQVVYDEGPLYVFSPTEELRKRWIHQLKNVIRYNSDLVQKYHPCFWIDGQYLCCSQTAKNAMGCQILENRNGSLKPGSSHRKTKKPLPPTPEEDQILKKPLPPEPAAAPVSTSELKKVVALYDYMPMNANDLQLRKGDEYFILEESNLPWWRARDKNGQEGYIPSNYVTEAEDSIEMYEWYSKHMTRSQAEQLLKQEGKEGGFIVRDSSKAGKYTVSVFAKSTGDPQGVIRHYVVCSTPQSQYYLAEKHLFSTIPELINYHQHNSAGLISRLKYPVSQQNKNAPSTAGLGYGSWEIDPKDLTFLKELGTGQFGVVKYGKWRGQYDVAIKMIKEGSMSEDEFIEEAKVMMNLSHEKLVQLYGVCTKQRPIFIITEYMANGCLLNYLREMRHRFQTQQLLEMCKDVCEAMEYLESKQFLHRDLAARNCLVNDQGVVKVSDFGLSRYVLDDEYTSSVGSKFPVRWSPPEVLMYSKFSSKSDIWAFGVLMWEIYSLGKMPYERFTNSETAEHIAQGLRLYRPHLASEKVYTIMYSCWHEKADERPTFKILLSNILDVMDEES

In series [1], `C=CC(=O)Nc1ccc(-c2ccnc(Nc3ccc(N4CCOCC4)cc3)n2)cc1` displayed a CLz/F of 136 mL/min/kg. The result in series [2] and in [4] was Active. Further, the Activity result was “Non-Toxic” in series [3], “Dose-dependent effect” in [5] and “Non-Toxic” in series [10]. The inhibition result in [6] is “Dose-dependent effect”. The Vd in series [7] came out at 8.36 L/kg. Moreover, the Vz in [8] is 220.42 L/kg. Besides, the inhibition at 1 h, 0.1 µM in series [9] stood at 6.3%; in series [12], 3.7%. The Cmax in [11] is 8760 ng/mL.
